Data set [1] is described as follows: Critical mole ratio by saturated solution method. Format: physicochemical. The following applies: 40% hydroxide propyl beta-cyclodextrin aqueous solution, mean of 3 tests. The protocol: The critical mole ratio and critical mass ratio in the present invention may be determined with the undermentioned saturated solution method. Weighing accurately medicine, and placing in the container, and gradually adding beta-cyclodextrin aqueous solution metered accurately with agitation, until the medicine is dissolved exactly and completely in this aqueous solution. Calculate both mass number here and convert it to mole number. Repeat the above-mentioned test, and get the mean mole number of repeated test, and calculate critical mole ratio with the undermentioned formula: Critical mole ratio of medicine=mean mole number of beta-cyclodextrin/mean mole number of medicine For example, critical mole ratio of Artemisinin and hydroxide propyl beta-cyclodextrin is measured with the undermentioned method: Weight accurately Artemisinin, and grind in tissue grinding device, and place in beaker, and gradually add 40% hydroxide propyl beta-cyclodextrin aqueous solution metered accurately while agitation, until Artemisinin is dissolved exactly and completely in this aqueous solution. Calculate both mass number here and convert it to mole number.

The conditions of data set [2]: medicine alone; cited from earlier work.
A short description of data set [3]: Critical mole ratio or critical mass ratio of medicines and beta-cyclodextrin derivative (Table 1, examples). Format: physicochemical. Here is the method: The critical mole ratio or critical mass ratio in the present invention refers to the mole ratio and mass ratio when complex of organic medicine and beta-cyclodextrin derivatives prepared with the method of this invention is dissolved exactly in water of specified amount to form stable aqueous solution.
The critical value of organic medicine and beta-cyclodextrin derivatives in the present invention, may be determined with the undermentioned unit test method.
(§1) All kinds of mole ratio and mass ratio of the medicine and beta-cyclodextrin derivative is made into complex with expanding loose body according to the method of the present invention, then the set water is added into the a variety of compounding ratio of complex, and by observing properties of the solution, the compounding ratio of exactly dissolving in water and with stable property, acts as the critical mole ratio or critical mass ratio of the present invention.
The critical mole ratio and critical mass ratio in the present invention may be determined with the undermentioned saturated solution method.
Weighing accurately medicine, and placing in the container, and gradually adding beta-cyclodextrin aqueous solution metered accurately with agitation, until the medicine is dissolved exactly and completely in this aqueous solution. Calculate both mass number here and convert it to mole number. Repeat the above-mentioned test, and get the mean mole number of repeated test, and calculate critical mole ratio with the undermentioned formula: Critical mole ratio of medicine=mean mole number of beta-cyclodextrin/mean mole number of medicine

The test system of data set [4] is plasmodium. Kind of data set: Medicine efficacy on killing plasmodium in mice infected plasmodium. The following applies: for ED90 comparison p.o./iv: ED90 of original medicine p.o. relative to its complex iv (complex = 1); for ED50: read-out: efficacy (killing) ED50. Format: in vivo.
A short description of data set [5]: Critical value of complex by unit test method (complexes of various compounding ratio dissolved in set water, solution properties observed). The following applies: hydroxide propyl beta-cyclodextrin to medicine. Format: physicochemical. Here is the method: as §1, with “The critical value of organic medicine and beta-cyclodextrin derivatives in the present invention, may be determined with the undermentioned unit test method. All” for “All”

The mark [6] stands for this setting: beta-cyclodextrin derivative (hydroxide propyl beta-cyclodextrin in the examples) to medicine, complex dissolves exactly in water to stable solution.

Read-outs that look alike come from different tables or passages of the source.

Broadly, the ED50 is the dose that gives a 50% effect, or the effect in half of the subjects.

As to `C[C@@H]1CC[C@H]2[C@@H](C)C(=O)O[C@@H]3O[C@@]4(C)CC[C@@H]1[C@]32OO4` [Artemisinin], the critical mole ratio entry in data set [1] was “about 5”. Besides, the “water solubility of the medicine” value in data set [2] is reported as “hardly water-soluble”. For the same molecule, the “Critical value mole ratio” value in data set [3] (setting [6]) turned out to be 5. The ED90 comparison p.o./iv in data set [4] worked out at 2.13. The ED50 in data set [4] (mice infected plasmodium, route of administration po.) is 19 mg/kg. Also, in data set [5], the “critical mass ratio of complex” value is “about 28” and the “critical mole ratio of complex” value was “about 5”.
On to `C[C@H]1[C@H](OC(=O)CCC(=O)O)O[C@@H]2O[C@@]3(C)CC[C@H]4[C@H](C)CC[C@@H]1[C@@]24OO3` [Artesunate], for which the “Critical value mole ratio” value in data set [3] (setting [6]) turned out to be 3. For the same molecule, the ED90 comparison p.o./iv in data set [4] came out at 1.88. In addition, in data set [4] (Plasmodium, po), the ED50 came out at 9.96 mg/kg.
On to `C[C@]12CC[C@H]3[C@@H](CCC4=CC(=O)CC[C@@]43C)[C@@H]1CC[C@@H]2O` [testosterone], for which, in data set [3], the “Critical value mole ratio” value is 4.
With `Cc1ncc([N+](=O)[O-])n1CCO` [Metronidazole], in data set [3] (setting [6]), the “Critical value Mass ratio” value turned out to be 9.
For `CCOC(=O)[N-]c1cn(N2CCOCC2)n[o+]1` [molsidomine], the “Critical value Mass ratio” value in data set [3] (setting [6]) was found to be 11.
As to `CN1CCC(=C2c3ccccc3CC(=O)c3sccc32)CC1` [ketotifen], in data set [3] (setting [6]), the “Critical value Mass ratio” value came to 4.
